Assay results as given in ChEMBL document CHEMBL1201862, “PubChem BioAssay data set” (2004).
Calls of active or inactive are those of the source.

Legend:
[1] = target: T1, Cyclin-dependent kinase 5/CDK5 activator 1 (Homo sapiens, UniProt Q00535); experiment: blockade of human CDK5 activity – biochemical, cherry-picked samples, set 2, dose response (AID 504545)
[2] = target: Dual specificity tyrosine-phosphorylation-regulated kinase 1A (Rattus norvegicus, UniProt Q63470); assay type: biochemical, Homo sapiens
[3] = target: Glycogen synthase kinase-3 beta (Homo sapiens, UniProt P49841); experiment: inhibition of human GSK3B activity – biochemical, microfluidics, dry powder samples, set 2, dose response (AID 623989); assay type: functional
Sequence of Glycogen synthase kinase-3 beta (P49841 whole entry): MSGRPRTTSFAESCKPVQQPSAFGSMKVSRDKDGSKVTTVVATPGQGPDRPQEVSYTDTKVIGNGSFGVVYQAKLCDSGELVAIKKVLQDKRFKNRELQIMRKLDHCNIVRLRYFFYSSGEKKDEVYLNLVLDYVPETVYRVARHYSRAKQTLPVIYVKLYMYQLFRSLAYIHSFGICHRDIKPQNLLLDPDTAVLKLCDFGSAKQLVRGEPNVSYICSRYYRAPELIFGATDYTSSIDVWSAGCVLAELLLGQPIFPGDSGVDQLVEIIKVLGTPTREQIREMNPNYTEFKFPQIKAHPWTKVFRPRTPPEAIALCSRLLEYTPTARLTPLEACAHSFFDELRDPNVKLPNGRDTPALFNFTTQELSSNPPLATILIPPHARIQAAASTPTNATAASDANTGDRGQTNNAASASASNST

[4] = target: Glycogen synthase kinase-3 alpha (Homo sapiens, UniProt P49840); experiment: GSK3A enzyme blockers, homolog specificity check – biochemical, microfluidics, dry powder samples, set 2, selectivity assay for GSK3beta inhibitor project, dose response (AID 623978); assay type: functional
Sequence of Glycogen synthase kinase-3 alpha (P49840 whole entry): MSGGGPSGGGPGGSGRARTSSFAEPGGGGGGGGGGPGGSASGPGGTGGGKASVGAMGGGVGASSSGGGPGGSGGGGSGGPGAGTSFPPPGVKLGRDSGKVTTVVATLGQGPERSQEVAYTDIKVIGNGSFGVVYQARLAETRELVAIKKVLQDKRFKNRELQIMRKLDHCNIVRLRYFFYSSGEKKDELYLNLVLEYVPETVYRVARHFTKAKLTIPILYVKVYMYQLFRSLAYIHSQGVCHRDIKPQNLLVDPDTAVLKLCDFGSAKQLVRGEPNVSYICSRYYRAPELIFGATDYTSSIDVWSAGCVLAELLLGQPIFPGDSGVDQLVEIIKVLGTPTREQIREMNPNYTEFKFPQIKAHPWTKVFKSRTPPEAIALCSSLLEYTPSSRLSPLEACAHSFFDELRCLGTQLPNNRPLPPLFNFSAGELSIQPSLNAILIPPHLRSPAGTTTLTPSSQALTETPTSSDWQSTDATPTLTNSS

[5] = target: T1, Cyclin-dependent kinase 5/CDK5 activator 1; experiment: inhibitors of human CDK5 activity – biochemical, microfluidic mobility shift, dry powder, set 2, selectivity assay for GSK3beta inhibitor project, dose response (AID 623979); assay type: functional
[6] = viability loss in HepG2 hepatoma cells – cell-based, ATP luminescence, cherry-pick, activator set 2, cytotoxicity control, dose response (AID 1053143); assay type: functional
[7] = viability loss in THP-1 monocytes – THP-1 cells, cytotoxicity control for Vif-APOBEC3G degradation inhibitor project, dose response (AID 1117359); assay type: functional; settings: THP-1
[8] = target: Protein kinase C zeta type (Homo sapiens, UniProt Q05513); assay type: functional;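 note: measured as one member of a broad kinase profiling panel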
Sequence of Protein kinase C zeta type (Q05513 whole entry): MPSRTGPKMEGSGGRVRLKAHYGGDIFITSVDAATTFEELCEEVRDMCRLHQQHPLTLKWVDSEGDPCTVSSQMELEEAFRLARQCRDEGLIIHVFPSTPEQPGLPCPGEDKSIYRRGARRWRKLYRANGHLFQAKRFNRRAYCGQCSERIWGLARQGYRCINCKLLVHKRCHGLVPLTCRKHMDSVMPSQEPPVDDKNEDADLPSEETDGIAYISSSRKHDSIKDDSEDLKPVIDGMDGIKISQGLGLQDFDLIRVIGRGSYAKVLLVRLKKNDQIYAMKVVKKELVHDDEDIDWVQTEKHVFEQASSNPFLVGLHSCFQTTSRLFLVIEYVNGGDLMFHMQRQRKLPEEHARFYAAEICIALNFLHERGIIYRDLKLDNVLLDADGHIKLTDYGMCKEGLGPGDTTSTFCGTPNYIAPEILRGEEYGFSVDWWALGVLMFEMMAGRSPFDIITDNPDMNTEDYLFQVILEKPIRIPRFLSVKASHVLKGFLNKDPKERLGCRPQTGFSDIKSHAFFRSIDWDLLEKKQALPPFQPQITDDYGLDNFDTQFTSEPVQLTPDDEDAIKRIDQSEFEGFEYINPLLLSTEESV

[9] = target: Eukaryotic elongation factor 2 kinase (Homo sapiens, UniProt O00418); assay type: functional
[10] = target: Testis-specific serine/threonine-protein kinase 2 (Homo sapiens, UniProt Q96PF2); assay type: functional;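 note: part of the Navigating the Kinome panel, target entry STK22B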
Sequence of Testis-specific serine/threonine-protein kinase 2 (Q96PF2 whole entry): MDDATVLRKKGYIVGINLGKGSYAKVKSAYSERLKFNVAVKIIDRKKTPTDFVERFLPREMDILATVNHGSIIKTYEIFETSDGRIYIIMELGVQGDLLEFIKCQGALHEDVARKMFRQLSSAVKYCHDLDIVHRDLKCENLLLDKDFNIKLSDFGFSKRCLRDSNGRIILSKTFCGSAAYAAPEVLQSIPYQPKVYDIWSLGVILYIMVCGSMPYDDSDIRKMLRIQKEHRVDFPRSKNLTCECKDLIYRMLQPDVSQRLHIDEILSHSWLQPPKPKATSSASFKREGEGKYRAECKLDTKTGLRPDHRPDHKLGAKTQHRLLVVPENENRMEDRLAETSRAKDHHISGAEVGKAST

[11] = target: Cell division cycle 7-related protein kinase (Homo sapiens, UniProt O00311); assay type: functional;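 note: value obtained from a kinome-wide kinase panel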
Sequence of Cell division cycle 7-related protein kinase (O00311 whole entry): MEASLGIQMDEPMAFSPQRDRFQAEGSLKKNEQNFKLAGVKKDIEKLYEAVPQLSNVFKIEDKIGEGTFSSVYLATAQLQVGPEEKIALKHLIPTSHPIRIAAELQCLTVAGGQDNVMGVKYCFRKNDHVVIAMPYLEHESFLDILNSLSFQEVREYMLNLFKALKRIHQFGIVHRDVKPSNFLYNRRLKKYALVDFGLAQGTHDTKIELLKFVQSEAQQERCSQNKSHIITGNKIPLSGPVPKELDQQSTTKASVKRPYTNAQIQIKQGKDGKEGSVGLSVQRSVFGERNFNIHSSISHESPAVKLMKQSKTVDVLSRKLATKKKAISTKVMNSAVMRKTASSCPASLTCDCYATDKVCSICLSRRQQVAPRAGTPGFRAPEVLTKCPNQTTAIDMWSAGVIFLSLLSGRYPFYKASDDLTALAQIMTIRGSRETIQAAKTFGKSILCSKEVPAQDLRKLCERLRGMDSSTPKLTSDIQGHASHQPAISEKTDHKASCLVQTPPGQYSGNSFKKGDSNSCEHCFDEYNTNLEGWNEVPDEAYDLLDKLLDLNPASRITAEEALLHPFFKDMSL

[12] = target: Protein kinase C gamma type (Homo sapiens, UniProt P05129); assay type: functional
[13] = target: Proto-oncogene tyrosine-protein kinase Src (Homo sapiens, UniProt P12931); assay type: functional;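 note: SRC entry within a kinome-wide kinase profiling panel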
[14] = target: Dual specificity tyrosine-phosphorylation-regulated kinase 3 (Homo sapiens, UniProt O43781); assay type: functional;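 note: measured as one member of a broad kinase panel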
[15] = target: MAP kinase-activated protein kinase 3 (Homo sapiens, UniProt Q16644); assay type: functional;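 note: value comes from a kinome-wide profiling panel in which MAPKAPK3 is one of the panel members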
Sequence of MAP kinase-activated protein kinase 3 (Q16644 whole entry): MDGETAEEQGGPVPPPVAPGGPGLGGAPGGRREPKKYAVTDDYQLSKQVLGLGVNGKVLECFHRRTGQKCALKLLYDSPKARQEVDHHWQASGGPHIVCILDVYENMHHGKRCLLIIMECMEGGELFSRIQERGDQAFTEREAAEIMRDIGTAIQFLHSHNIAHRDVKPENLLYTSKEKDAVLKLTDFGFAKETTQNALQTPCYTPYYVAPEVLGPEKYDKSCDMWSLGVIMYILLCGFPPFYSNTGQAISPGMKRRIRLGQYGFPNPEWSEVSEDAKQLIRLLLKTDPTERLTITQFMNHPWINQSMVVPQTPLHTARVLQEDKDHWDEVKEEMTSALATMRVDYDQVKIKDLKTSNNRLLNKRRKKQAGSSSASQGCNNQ

[16] = target: G protein-coupled receptor kinase 5 (Homo sapiens, UniProt P34947); experiment: Navigating the Kinome. Panel member name: GPRK5; assay type: functional
Sequence of G protein-coupled receptor kinase 5 (P34947 whole entry): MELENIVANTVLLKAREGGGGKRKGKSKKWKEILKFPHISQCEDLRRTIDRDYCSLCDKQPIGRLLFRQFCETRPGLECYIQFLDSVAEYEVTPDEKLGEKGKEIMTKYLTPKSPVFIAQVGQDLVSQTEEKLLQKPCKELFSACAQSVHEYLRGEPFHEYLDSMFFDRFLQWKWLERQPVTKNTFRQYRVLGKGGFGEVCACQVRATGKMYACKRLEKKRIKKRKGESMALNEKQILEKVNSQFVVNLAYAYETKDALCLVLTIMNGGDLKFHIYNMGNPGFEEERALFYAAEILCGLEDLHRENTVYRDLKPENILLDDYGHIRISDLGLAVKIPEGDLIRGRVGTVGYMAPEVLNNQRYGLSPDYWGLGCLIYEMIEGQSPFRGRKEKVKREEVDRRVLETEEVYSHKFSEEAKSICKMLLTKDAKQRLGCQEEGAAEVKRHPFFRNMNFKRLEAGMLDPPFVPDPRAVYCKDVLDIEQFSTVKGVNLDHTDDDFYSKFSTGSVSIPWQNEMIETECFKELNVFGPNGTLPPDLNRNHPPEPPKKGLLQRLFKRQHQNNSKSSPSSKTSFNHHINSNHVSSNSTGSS

[17] = target: Dual specificity tyrosine-phosphorylation-regulated kinase 4 (Homo sapiens, UniProt Q9NR20); assay type: functional
Sequence of Dual specificity tyrosine-phosphorylation-regulated kinase 4 (Q9NR20 whole entry): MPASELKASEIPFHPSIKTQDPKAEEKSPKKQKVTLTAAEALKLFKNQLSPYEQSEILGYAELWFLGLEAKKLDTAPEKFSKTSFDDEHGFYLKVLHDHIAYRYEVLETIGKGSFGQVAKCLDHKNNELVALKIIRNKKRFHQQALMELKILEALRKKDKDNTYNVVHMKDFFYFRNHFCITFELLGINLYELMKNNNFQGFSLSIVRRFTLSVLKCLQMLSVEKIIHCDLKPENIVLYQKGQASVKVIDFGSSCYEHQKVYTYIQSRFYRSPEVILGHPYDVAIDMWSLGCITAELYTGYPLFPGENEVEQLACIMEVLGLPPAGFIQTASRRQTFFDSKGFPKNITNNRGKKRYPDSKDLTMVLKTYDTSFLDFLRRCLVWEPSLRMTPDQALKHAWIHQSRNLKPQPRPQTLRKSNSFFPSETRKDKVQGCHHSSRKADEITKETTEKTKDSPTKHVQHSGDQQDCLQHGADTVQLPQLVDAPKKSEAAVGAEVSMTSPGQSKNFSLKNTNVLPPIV

[18] = target: Protein-tyrosine kinase 6 (Homo sapiens, UniProt Q13882); assay type: functional
[19] = target: Tyrosine-protein kinase Fyn (Homo sapiens, UniProt P06241); assay type: functional
[20] = target: Cyclin-dependent kinase 1 (Homo sapiens, UniProt P06493); assay type: functional;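 note: Kinome-wide panel profiling, with the target listed as panel member CDC2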
[21] = target: Lymphokine-activated killer T-cell-originated protein kinase (Homo sapiens, UniProt Q96KB5); assay type: functional;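 note: value comes from a kinase panel screen in which TOPK was one of the panel members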
Sequence of Lymphokine-activated killer T-cell-originated protein kinase (Q96KB5 whole entry): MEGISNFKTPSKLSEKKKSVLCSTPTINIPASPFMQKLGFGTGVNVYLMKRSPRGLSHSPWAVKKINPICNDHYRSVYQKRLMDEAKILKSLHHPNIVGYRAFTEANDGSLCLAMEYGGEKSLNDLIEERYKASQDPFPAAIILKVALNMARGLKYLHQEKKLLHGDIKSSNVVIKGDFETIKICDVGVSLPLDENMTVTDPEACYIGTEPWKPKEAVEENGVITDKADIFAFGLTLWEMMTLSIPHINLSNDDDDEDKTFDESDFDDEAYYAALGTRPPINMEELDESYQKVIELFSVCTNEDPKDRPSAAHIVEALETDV

[22] = target: Tyrosine-protein kinase receptor UFO (Homo sapiens, UniProt P30530); assay type: functional

T1 sequence (Q00535 whole entry): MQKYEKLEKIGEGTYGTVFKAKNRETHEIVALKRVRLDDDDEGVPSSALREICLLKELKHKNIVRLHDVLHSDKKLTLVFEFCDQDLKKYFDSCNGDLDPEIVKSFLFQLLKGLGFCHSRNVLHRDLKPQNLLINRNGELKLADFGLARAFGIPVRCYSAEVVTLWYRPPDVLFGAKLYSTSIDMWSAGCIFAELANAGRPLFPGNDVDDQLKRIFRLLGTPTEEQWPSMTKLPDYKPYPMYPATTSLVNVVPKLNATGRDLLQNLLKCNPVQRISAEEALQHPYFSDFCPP
T1 sequence (Q15078 whole entry, further chain): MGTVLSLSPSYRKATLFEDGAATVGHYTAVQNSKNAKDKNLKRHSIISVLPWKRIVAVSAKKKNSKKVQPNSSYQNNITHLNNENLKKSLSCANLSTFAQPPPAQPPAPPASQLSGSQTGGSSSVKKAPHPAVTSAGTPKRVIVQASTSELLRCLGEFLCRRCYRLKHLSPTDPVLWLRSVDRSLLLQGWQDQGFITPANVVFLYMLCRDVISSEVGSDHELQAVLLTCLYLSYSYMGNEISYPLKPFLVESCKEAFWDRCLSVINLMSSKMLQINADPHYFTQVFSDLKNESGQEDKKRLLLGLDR

Nc1nc(Nc2ccccc2)sc1C(=O)c1ccccc1
active: AC50 [1] 2.27 µM | AC50 [2] 0.811 µM | AC50 [3] 0.036 µM | AC50 [4] 0.168 µM | AC50 [5] 0.19 µM | AC50 [6] 18.9 µM | CC50 [7] 14 µM

COc1cc2c(Oc3ccc4[nH]c(C)cc4c3F)ncnc2cc1OCCCN1CCCC1 [CEDIRANIB]
inactive: Ki [8] > 7.94 µM | Ki [9] > 3.98 µM | Ki [10] > 1.58 µM | Ki [11] > 1.26 µM | Ki [12] > 7.94 µM | Ki [14] > 6.31 µM | Ki [15] > 10 µM | Ki [16] > 3.98 µM | Ki [17] > 7.94 µM | Ki [20] > 7.94 µM | Ki [21] > 10 µM
active: Ki [13] 0.0501 µM | Ki [18] 0.0398 µM | Ki [19] 0.501 µM | Ki [22] 0.316 µM
